# Laboratory results from patent US20180252705A1, “Myeloid Progenitor Cells in Kidney Disease” (Rush University Medical Center, priority 2015, published 2018).
# “Also recorded” adds a separate entry of the source. Where a name gives a salt, the structure may show the parent alone.
# B1: G-CSF: Recombinant mouse G-CSF (Shenandoah Biotechology INC) (protein, UniProt P09920 31-208, looked up)
# Granulocyte …: VPLVTVSALPPSLPLPRSFLLKSLEQVRKIQASGSVLLEQLCATYKLCHPEELVLLGHSLGIPKASLSGCSSQALQQTQCLSQLHSGLCLYQGLLQALSGISPALAPTLDLLQLDVANFATTIWQQMENLGVAPTVQPTQSAMPAFTSAFQRRAGGVLAISYLQGFLETARLALHHLA
# Assays:
# [1] = test system: BM cells; assay: in vitro LPS stimulation on isolated BM cells; format: cell-based, mouse; settings: LPS 0.1, 1 and 10 μg/ml, 24-hour incubation, dose-dependent
# Method: in vitro LPS stimulation on isolated BM cells. The BM cells were isolated from C57BL6 WT mice and treated with PBS or various concentrations of LPS (0.1, 1, and 10 μg/ml). Following 24-hour-incubation at 37 C in a CO2 incubator (5%), the cells and culture supernatants were collected. The cells were stained for uPAR, Sca-1, and Gr-1. The in vitro induction of uPAR+Sca-1^loGr-1^lo cells in total BM cells was determined by triple color-flow cytometric analysis. The culture supernatants were used for suPAR measurement.
# [2] = test system: suPAR; assay: Circulating and urinary suPAR levels (ELISA) in proteinuric animal models; format: in vivo, mouse
# Method: (§1) Detection of circulating and urinary suPAR levels Mouse suPAR levels from plasma (and/or serum) and urine were evaluated by enzyme-linked immunosorbent assay (ELISA) kit (R&D systems) following the manufacturer's protocol.
# (§2) Proteinuric animal models. i) LPS injected mice. Proteinuria was induced with single injection of LPS as described previously (Wei et al., 2008; Wei et al.,). Briefly, mice were injected with LPS (Sigma) i.p at a dose of 10 mg per kg body weight. The mice injected with PBS were used as a control. Twenty-four hours after LPS treatment, urine and blood samples were collected and kidney, femurs, and tibias were harvested from the sacrificed mice.
# ii) Pod-Rac1, Inducible EGFP_CA-Rac1 transgenic mice. EGFP_CA-Rac1 transgenic mice were crossed to Nphs1-rtTA (NEF-rtTA) inducer mice to generate double transgenic (dTG, NEF×Rac1) mice. Male mice were used in this study. To induce transgene expression, regular chow was replaced with doxycycline (DOX)-supplemented chow (2,000 ppm; TestDiet). Single transgenic (EGFP_CA-Rac1) mice were used as a control. Twelve days after DOX diet, urine and blood samples were collected and kidney, femurs, and tibias were harvested from the sacrificed mice. Hi) Adiamycin (ADR) injected mice: Proteinuria was induced with single injection of ADR as described previously. […]
# [3] = test system: BM myeloid cells; assay: Flow cytometric analysis of BM cells (uPAR, Gr-1, Sca-1) in proteinuric animal models; format: in vivo, mouse
# Method: as §2
# ii) Pod-Rac1, Inducible EGFP_CA-Rac1 transgenic mice. EGFP_CA-Rac1 transgenic mice were crossed to Nphs1-rtTA (NEF-rtTA) inducer mice to generate double transgenic (dTG, NEF×Rac1) mice. Male mice were used in this study. To induce transgene expression, regular chow was replaced with doxycycline (DOX)-supplemented chow (2,000 ppm; TestDiet). Single transgenic (EGFP_CA-Rac1) mice were used as a control. Twelve days after DOX diet, urine and blood samples were collected and kidney, femurs, and tibias were harvested from the sacrificed mice. Hi) Adiamycin (ADR) injected mice: Proteinuria was induced with single injection of ADR as described previously. (Wang et al.) Briefly, male BALB/c mice were injected with ADR (Doxorubicin Hydrochloride, Sigma) via the tail vein at a dose of 11 mg per kg body weight. Six days after ADR injection, urine and blood samples were collected and kidney, femurs, and tibias were harvested from the sacrificed mice. iv) TGF β1 transgenic mice: The transgenic mice that express an active form of TGF β1 under the control of murine albumin promoter developed proteinuria as described previously (Kopp et al.). Since the transgene is on the Y chromosome, male mice (<4-week-old) with severe phenotype were used. Littermate female mice were used as a control. v) Nephrotoxic serum (NTS) nephritis model: Proteinuria was induced by injection of NTS as described previously (Kistler et al.). Briefly, male C57BL6 mice were injected i.p with sheep anti-rabbit glomerular basement membrane antibody at a dose of 500 mg per kg body weight on consecutive days. The mice injected PBS were used as a control. Seven days after injection, urine and blood samples were collected and kidney, femurs, and tibias were harvested from the sacrificed mice. vi) BTBR ob/ob diabetic nephropathy (DN) model: The mouse strain BTBR with the ob/ob leptin-deficiency mutation developed severe type 2 diabetes with heavy proteinuria as described previously (Hudkins et al.). Wild-type (BTBR ob^+/+), heterozygous (BTBR ob^+/−), and homozygous (BTBR ob^−/−) mice were obtained by mating heterozygous (BTBR ob^+/−) mice. For DN model, 16-week-old homozygotes (BTBR ob^−/−) were used. Wild-type (BTBR ob^+/+) or heterozygote (BTBR ob^+/−) littermates were used as controls.
# Purification of mouse PBLs and BMCs. To collect blood, mice were anesthetized, then the blood was drawn from posterior vena cava into acid-citrate-dextrose (ACD, Sigma) solution-containing 1 ml syringe. After lysis of red blood cells (RBCs), blood leukocytes were washed and counted. For BMCs purification, femurs and tibias were taken and flushed with a syringe filled with Hank's balanced salt solution (HBSS, Life Technologies) containing 0.1% bovine serum albumin and 20 mM HEPES (pH 7.4). […]
# Flow cytometric analysis. […] And the cells were labeled for 30 minutes on ice with fluorescence-conjugated antibodies: Gr-1-allophycocyanin (APC), uPAR-phycoerythrin (PE), Sca-1-fluorescein isothiocyanate (FITC), c-kit-APC, and irrelevant IgG isotype control antibodies. […]
# [4] = test system: NSG mice; assay: Proteinuria (ACR) in LPS injected NSG mice; format: in vivo, mouse; settings: LPS vs PBS, 24 hours after LPS administration
# Method: (§3) Albumin creatinine ratio (ACR) measurement Mouse urine samples were collected and urinary albumin and creatinine were measured by mouse albumin ELISA (Bethyl Labs), and creatinine assay (Cayman chemical) kits according to manufacturers' protocols. The ratio of urinary albumin to creatinine was then calculated.
# as §2
# [5] = test system: LPS-challenged mice; assay: LPS-induced proteinuria after pretreatment, albumin creatinine ratio (ACR); format: in vivo, mouse; settings: agent given prior to LPS challenge; urine 24 hours after LPS; compared to LPS alone / isotype control
# Method: as §3, §2
# In vivo depletion. Anti-Ly6G monoclonal antibody (1A8, BioXcell) or control rat IgG2a antibody (2A3, BioXcell) was injected i.p into mice (500 μg per mouse) 48 hours and 1 hour prior to LPS injection. Neutrophil depletion was confirmed by flow cytometric analysis.
# (§4) Treatment of granulocyte colony stimulating factor (G-CSF). Recombinant mouse G-CSF (Shenandoah Biotechology INC) was administrated by daily i.p injection into BALB/c mice at a dose of 4 μg per 20 g body weight for 2 consecutive days. Blood cell counts were determined using a Hemavet 950FS (Drew Scientific).
# Treatment of plerixafor. […]
# [6] = test system: suPAR; assay: Plasma suPAR levels (ELISA) in pretreated LPS-challenged mice; format: in vivo, mouse; settings: G-CSF for two consecutive days prior to LPS; 24 hours after LPS; compared to LPS alone
# Method: as §1, §2, §4
# [7] = ADR-induced nephropathy, male BALB/c, 11 mg per kg tail vein, six days after injection
molecule,measurement,setting,value
lipopolysaccharide [LPS],expansion of uPAR-expressing MPCs (uPAR+Sca-1^lo Gr-1^lo cells in total BM cells),[1],stimulated the expansion of uPAR-expressing MPCs
same,suPAR secretion into the culture medium,[1]; suPAR ELISA,stimulated
same,suPAR levels in blood and urine,"[2]; NSG mice, LPS vs PBS, 24 hours after LPS administration",elevated suPAR levels in both blood and urine; also recorded: enhanced blood suPAR levels
same,uPAR-expressing Sca-1/Gr-1^lo BM cell population (myeloid progenitor cells),"[3]; LPS vs PBS injected mice, 24 hours",increased uPAR-expressing BM cell population; also recorded: increased the population of Sca-1^+Gr-1^lo myeloid progenitor cells
same,uPAR expression on BM myeloid cells (not peripheral blood myeloid cells),[3]; LPS-treated vs PBS-treated mice,elevated levels of uPAR; also recorded: increased uPAR expression
same,uPAR expression on BM myeloid cells,"[3]; NSG mice, LPS vs PBS",increased uPAR expression on BM myeloid cells
same,Gr-1^lo cells in BM (percentage; ratio to Gr-1^hi),"[3]; WT mice, LPS vs PBS, 24 hours",significant increase; also recorded: markedly increased ratio
same,proteinuria (ACR),[4],resulting in proteinuria; also recorded: caused proteinuria
"c1cc(CN2CCCNCCNCCCNCC2)ccc1CN1CCCNCCNCCCNCC1 [plerixafor, Plerixafor]",proteinuria (ACR),[5],did not enhance proteinuria
"COc1cccc2c1C(=O)c1c(O)c3c(c(O)c1C2=O)C[C@@](O)(C(=O)CO)C[C@@H]3O[C@H]1C[C@H](N)[C@H](O)[C@H](C)O1 [ADR, Doxorubicin Hydrochloride]",suPAR levels in the circulation or urine,[2]; [7],did not find elevated suPAR levels
same,percentage of Gr-1^lo myeloid cells in BM,[3]; [7],no significant increase
B1,plasma suPAR levels,[6],increased plasma suPAR levels; also recorded: enhanced plasma suPAR levels
same,proteinuria (ACR),[5],accelerated proteinuria
